Experimental data reported in patent publication US10479786B2, “Protein kinase inhibitors” (Princeton Drug Discovery Inc, priority 2016, dated 2019).

Target: T1, PDGFRα(T674I) (Homo sapiens, UniProt P16234, T674I)
T1 construct: purchased Carna Biosciences, Inc
Assay: Off-chip Mobility Shift Assay, kinase inhibition
Format: biochemical
Conditions: at 10 nM; recombinant PDGFRα(T674I)

T1 sequence (P16234 24-1089 T674I): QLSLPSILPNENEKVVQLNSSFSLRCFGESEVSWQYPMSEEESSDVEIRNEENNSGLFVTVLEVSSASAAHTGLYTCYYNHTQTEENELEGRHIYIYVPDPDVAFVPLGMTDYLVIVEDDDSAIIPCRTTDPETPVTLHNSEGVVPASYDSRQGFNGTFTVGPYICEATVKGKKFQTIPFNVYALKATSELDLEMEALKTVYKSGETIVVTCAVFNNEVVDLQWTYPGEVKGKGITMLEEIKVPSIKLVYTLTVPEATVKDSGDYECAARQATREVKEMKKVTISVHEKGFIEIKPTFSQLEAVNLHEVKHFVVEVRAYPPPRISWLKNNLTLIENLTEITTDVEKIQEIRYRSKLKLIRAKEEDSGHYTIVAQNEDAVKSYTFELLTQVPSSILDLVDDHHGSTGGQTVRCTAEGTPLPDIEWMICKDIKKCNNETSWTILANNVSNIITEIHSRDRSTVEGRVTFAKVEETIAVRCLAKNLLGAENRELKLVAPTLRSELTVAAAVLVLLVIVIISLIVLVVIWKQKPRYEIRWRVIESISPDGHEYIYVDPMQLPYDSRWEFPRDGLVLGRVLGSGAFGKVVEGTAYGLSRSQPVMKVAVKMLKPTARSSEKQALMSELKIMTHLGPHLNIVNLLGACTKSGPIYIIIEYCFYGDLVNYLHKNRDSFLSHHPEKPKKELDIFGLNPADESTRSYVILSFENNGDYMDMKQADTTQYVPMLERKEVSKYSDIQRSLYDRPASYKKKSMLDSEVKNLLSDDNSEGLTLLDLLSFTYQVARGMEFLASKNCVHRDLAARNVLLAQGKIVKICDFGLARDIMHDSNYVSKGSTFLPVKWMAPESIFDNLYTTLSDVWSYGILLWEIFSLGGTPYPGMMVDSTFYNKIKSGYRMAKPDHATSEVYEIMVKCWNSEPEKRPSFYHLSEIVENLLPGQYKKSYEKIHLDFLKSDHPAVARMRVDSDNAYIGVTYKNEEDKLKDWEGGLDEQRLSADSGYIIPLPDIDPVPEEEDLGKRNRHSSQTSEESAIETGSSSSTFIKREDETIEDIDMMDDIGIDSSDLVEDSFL

inhibition at 0.01 µM: < 50%
Structure (SMILES): [2H]c1cc(C)c(NC(=O)c2cnc(Nc3cc(N4CCCCC4)nc(C)n3)s2)c(Cl)c1 [Compound I, N-(2-chloro-4-deuterio-6-methyl-phenyl)-2-[[2-methyl-6-(1-piperidyl)pyrimidin-4-yl]amino]thiazole-5-carboxamide]
